The text below walks through data of US11233200B2, “Condensed cyclic compound, composition including the same, and organic light-emitting device including the condensed cyclic compound” (Samsung Electronics Co., Ltd., priority 2018, dated 2022).

Molecules are shown by their SMILES. Where only a bound is given, the exact number is not on record here.

The nature of series [1]: Measurement of triplet energy level. Type of series: physicochemical. As to conditions: spin-coated film of about 50 nm from 3 weight % toluene solution; PL spectrum at 77 K, peak of shortest wavelength. The protocol: Compound 1 was dissolved in toluene to a concentration of 3 weight % to prepare a solution. The same applied to Compounds 3 and C1 to prepare solutions. The solutions were spin-coated at a rotational speed of 1,600 revolutions per minute (rpm) and dried on a hot plate at a temperature of 120° C. for 15 minutes to obtain films (samples) having a thickness (film thickness after dry) of about 50 nanometers (nm). The samples were cooled to a temperature of 77 Kelvins (K) (−196° C.) and photoluminescence (PL) spectrums were obtained. The triplet energy levels (electron volts, eV) were calculated at the peak values of the shortest wavelengths of the PL spectrums.

Series [2] in a line: Measurement of solubility. Type of series: physicochemical. Particulars: methyl benzoate (solvent), room temperature, ultrasonic waves. The protocol: 50 milligrams (mg) of Compound 1 and 500 mg of methyl benzoate (solvent) were added to a colorless sample bottle, ultrasonic waves were irradiated thereon at room temperature for 5 minutes, and the presence or absence of Compound 1 was visually confirmed. […] When Compound 1 remains, a small amount of a solvent was added thereto, the irradiation of ultrasonic waves was repeated, and an amount of the solvent was measured until Compound 1 was completely dissolved. The solubility was measured from the amount of the solvent finally used. The solubility values of Compounds 3 and C1 were calculated in the same manner.

As to `c1ccc(-c2cccc(-c3cccc(-c4cccc5c4-c4ccccc4C54c5ccccc5-c5c(-c6cccc(-c7cccc(-c8ccccc8)c7)c6)cccc54)c3)c2)cc1` [Compound 1], the Triplet energy level in series [1] is listed as 2.96 eV. The Solubility in series [2] is on record as 7 weight %.

In series [1], `c1ccc(-c2cc(-c3ccccc3)cc(-c3cccc(-c4cccc5c4-c4ccccc4C54c5ccccc5-c5c(-c6cccc(-c7cc(-c8ccccc8)cc(-c8ccccc8)c7)c6)cccc54)c3)c2)cc1` [Compound 3] returned a Triplet energy level of 2.96 eV. Also, the Solubility in series [2] is on record as 9 weight %.

Consider `c1ccc(-c2cccc(-c3cccc(-c4ccc5c(c4)C4(c6ccccc6-5)c5ccccc5-c5ccc(-c6cccc(-c7cccc(-c8ccccc8)c7)c6)cc54)c3)c2)cc1` [Compound C1], for which, in series [1], the Triplet energy level is recorded as 2.81 eV. The Solubility in series [2] is recorded as 2 weight %.

In series [1], `c1ccc(-c2nc(-c3ccccc3)nc(-c3cccc(-c4cccc(-c5cccc6c5-c5ccccc5C65c6ccccc6-c6c(-c7ccccc7)cccc65)c4)c3)n2)cc1` (centres unmarked) [Compound C2] returned a Triplet energy level of 2.91 eV. Also, the Solubility in series [2] was <1 weight %.
